# Results reported in US20030176494A1, “Novel coumarin and chromene compounds and methods of preparation and use thereof for treating or preventing viral infections” (priority 2001, published 2003).
# pEC50, pIC50: −log10 of the molar value. Read-outs that look alike come from different tables or passages of the source.
# Key:
# HIV = experiment: Anti-HIV evaluation by MTT-tetrazolium method (inhibition of CPE in MT-2 / CEM-SS cells); format: cell-based; details: Human immunodeficiency virus 1, CEM-SS; read-out: Antiviral Activities (EC50) HIV
# Experimental: This example illustrates the anti-HIV activity of various coumarin and chromene compounds which were evaluated using the published MTT-tetrazolium methods^8. Retroviral agents AZT and DDC were used as controls for comparison purposes.
# The cells used for screening were the MT-2 and the human T4-lymphoblastoid cell line, CEM-SS, and were grown in RPMI 1640 medium supplemented with 10% fetal (v/v) heat-inactivated fetal calf serum and also containing 100 units/mL penicillin, 100 μg/mL streptomycin, 25 mM HEPES and 20 μg/mL gentamicin. The medium used for dilution of drugs and maintenance of cultures during the assay was the same as above. The HTLV-IIIB and HTLV-RF were propagated in CEM-SS. The appropriate amounts of the pure compounds for anti-HIV evaluations were dissolved in DMSO, then diluted in medium to the desired initial concentration. The concentrations (M medium) employed were […]; 0.001 μM; 0.0032 μM; 0.01 μM; 0.032 μM; 0.1 μM; 0.32 μM; 1 μM; 3.2 μM; 10 μM; 32 μM; and 100 μM. Each dilution was added to plates in the amount of 100 μL/well. Drugs were tested in triplicate wells per dilution with infected cells while in duplicate wells per dilution with uninfected cells for evaluation of cytotoxicity. On day 6 (CEM-SS cells) and day 7 (MT-2 cells) post-infection, the viable cells were measured with a tetrazolium salt, MTT (5 mg/mL), added to the test plates. A solution of 20% SDS in 0.001 N HCl is used to dissolve the MTT formazan produced. The optical density value was a function of the amount of formazan produced which was proportional to the number of viable cells. The percent inhibition of CPE per drug concentration was measured as a test over control and expressed in percent (T/C %).
# EBV = EBV assay: superinfection of Raji or Daudi cells with P3HR-1, immunofluorescence for EA and VCA; format: cell-based, Epstein-Barr Virus (P3HR-1); details: human gammaherpesvirus 4; read-out: Antiviral Activities (EC50) EBV
# Source text: There are two prototypes of infectious EBV. One is exemplified by the virus derived from supernatant fluids of the P3HR-1cell line. This cell line produces nontransforming virus that causes the production of early antigen (EA) after primary infection or superinfection of B cell lines. The other prototype is exemplified by the B-95-8 virus. This virus immortalized cord blood lymphocytes and induced tumors in marmosets. […] The virus used in our assays is P3HR-1.
# Ramos is an exceptional B cell line derived from Burkitt's lymphoma tumor but containing no detectable EBV genome copies and is EBNA negative. Ramos/AW was obtained by in vitro infection of Ramos with the P3HR-1 virus and contains one resident EBV genome copy/cell. Raji is a Burkitt's lymphoma cell line containing 60 EBV genomes/cell, and will be the primary cell used for screening antiviral activity against EBV EA expression. Daudi is a low level producer that contains 152 EBV genome copies/cell. It spontaneously expresses EBV EA in 0.25%-0.5% of the cells. It will be used in follow-up studies to confirm activity. These cell lines respond to superinfection by EBV by expressing EA(D), EA(R), and VCA. All cell lines are maintained in RPMI-1640 medium supplemented by 10% FCS, L-glutamine and 100 μg/mL gentamicin. The cultures are fed twice weekly and the cell concentration adjusted to 3×10^5/mL. The cells are kept at 37° C. in a humidified atmosphere with 5% CO2.
# Cells are infected with the P3HR-1 strain of EBV and the drugs to be tested are added after adsorption (45 minutes at 37° C.) and washing of the cell cultures. The cultures are incubated for two days in complete medium to allow viral gene expression. Following the 48 hr incubation period, the number of cells of each sample are counted and smears made. Monoclonal antibodies to the different EA components and VCA are then added to the cells incubated and washed. This is followed by a fluorescein conjugated rabbit anti-mouse Ig antibody; and the number of fluorescence positive cells in the smears are counted. The total number of cells in the cultures positive for EA or VCA are then calculated and compared.
# HBV = HBV replication in cultures of 2.2.15 cells (HBV DNA blot hybridization); format: cell-based
# Experimental: Test compounds are then added daily for a continuous 9 day period. Culture medium (changed daily during the treatment period) is collected and stored for analysis of extracellular (virion) HBV DNA after 0, 3, 6, and 9 days of treatment. Treated cells are lysed 24 hours following day 9 of treatment for the analysis of intracellular HBV genomic forms. HBV DVA is then analyzed in a quantitative and qualitative manner for overall levels of HBV DNA (both extracellular and intracellular DNA) and the relative rate of HBV replication (intracellular DNA).
# Both intracellular and extracellular HBV DNA are analyzed in order to (i) allow for verification of compound efficacy and (ii) provide possible data on the target site in the HBV replication pathway for the compound from examination of the pattern of viral replicative forms. The culture medium is changed daily during the treatment period to (i) prevent the buildup of potentially toxic metabolites derived from test compounds and (ii) provide an analysis of HBV virion production during discrete 24-hour intervals which enables a quantitative comparison of any effect on virion production.
# The analysis of HBV DNA is performed using blot hybridization techniques (Southern and slot blot) and [^32P]-labeled HBV-specific probes. HBV DNA levels are measured by comparison to known amounts of HBV DNA standards applied to every nitrocellulose membrane (gel or slot blot). An AMBIS beta scanner, which measures the radioactive decay of the hybridized probes directly from the nitrocellulose membranes, is used for the quantitative analysis. Standard curves, generated by multiple analyses, are used to correlate CPM measurements made by the beta scanner with relative levels of target HBV DNA. The levels of HBV virion DNA released into the culture medium are analyzed by a slot blot hybridization procedure. HBV DNA levels are then compared to those at Day 0 to determine the effect of drug treatment.
# The levels of RI and episomal monomers are used as an indicator of the relative level of HBV replication. Integrated HBV DNA is used to normalize the relative amounts of DNA in each lane because the levels of this class of HBV DNA would be expected to remain constant on a per cell basis. […] Inhibition of HBV DNA replication is indicated by the loss of RI without changes in the level of integrated HBV DNA.
# Measles Virus = experiment: Measles virus antiviral assay (CPE inhibition, neutral red uptake, virus yield); format: cell-based, Measles virus strain CC; details: Measles morbillivirus
# [1] = system: Respiratory Syncytial Virus; experiment: Respiratory syncytial virus antiviral assay (CPE inhibition, neutral red uptake); format: cell-based, Respiratory syncytial virus strain Utah 89; details: human respiratory syncytial virus
# Rhinovirus = Rhinovirus antiviral assay (CPE inhibition, neutral red uptake, virus yield); format: cell-based; details: Enterovirus
# VZV = VZV plaque reduction assay in human foreskin fibroblast cells; format: cell-based, Varicella Zoster Virus (Ellen strain); details: Human alphaherpesvirus 3, Fibroblast; read-out: Antiviral Activities (EC50) VZV
# Experimental: [table] Two days prior to use, HFF cells are plated into six-well plates and incubated at 37° C. with 5% CO2 and 90% humidity. On the date of assay, the drug is made up at twice the desired concentration in 2×MEM and then serially diluted 1:5 in 2×MEM using six concentrations of drug. […] The media is then aspirated from the wells and 0.2 mL of virus is added to each well in duplicate with 0.2 mL of media being added to drug toxicity wells. The plates are then incubated for one hour with shaking every fifteen minutes. […] The drug agarose mixture is applied to each well in 2 mL volume and the plates then incubated for three days, after which the cells were stained with a 1.5% solution of neutral red. At the end of 4-6 hr incubation period, the stain is aspirated, and plaques counted using a stereomicroscope at 10× magnification. The procedure is essentially the same as for the HSV plaque assay described above with two exceptions: 1. After addition of the drug, the plates are incubated for ten days. 2.
# HIV-1 = details: cited from earlier work
# [2] = system: human T-lymphoblastic cells (CEM-SS); details: cited from earlier work
# [3] = system: AZT-resistant G-9106 strain of HIV; details: cited from earlier work
# [4] = system: pyridinone-resistant A17 virus; details: cited from earlier work
# [5] = CPE inhibition, read-out: Antiviral Activities (EC50) Measles (CPE)
# [6] = neutral red (NR) dye uptake, read-out: Antiviral Activities (EC50) Measles (NR)
# [7] = CPE inhibition, read-out: Antiviral Activities (EC50) Respiratory Syncitial (CPE)
# [8] = neutral red (NR) dye uptake, read-out: Antiviral Activities (EC50) Respiratory Syncitial (NR)
# [9] = CPE inhibition, read-out: Antiviral Activities (EC50) Rhinovirus (CPE)
# [10] = neutral red (NR) dye uptake, read-out: Antiviral Activities (EC50) Rhinovirus (NR)
# [11] = Hepatitis B virus; read-out: Antiviral Activities (EC50) HBV
# [12] = readout not stated, read-out: Antiviral Activities (EC50) Rhinovirus
Compound,EC50 (HIV),EC50 (EBV),EC50 (Measles Virus; [5]),EC50 (Measles Virus; [6]),"EC50 [1, 7]","EC50 [1, 8]",EC50 (Rhinovirus; [9]),EC50 (Rhinovirus; [10]),EC50 (VZV),EC50 (HBV; [11]),also measured
CCCc1cc(=O)oc2cc(OS(=O)(=O)c3ccc(C)cc3)cc(OS(=O)(=O)c3ccc(C)cc3)c12,> 3 µg/mL,> 50 µg/mL,3 µg/mL,1 µg/mL,2 µg/mL,1 µg/mL,2 µg/mL,1 µg/mL,> 20 µg/mL,,"EC50 (HBV; Hepatitis B virus, read-out: Antiviral Activities (EC50) HBV): > 5 µg/mL; EC50 (Measles Virus; read-out: Antiviral Activities (EC50) Measles (virus yield)): 3 µg/mL"
CCCc1cc(=O)oc2cc(OCC(C)(C)C(=O)OC)c3c(c12)OC(C)(C)C=C3,2 µg/mL,0.08 µg/mL,40 µg/mL,30 µg/mL,,,,,> 20 µg/mL,> 4 µg/mL,"EC50 ([1]; readout not stated, read-out: Antiviral Activities (EC50) Respiratory Syncitial): > 100 µg/mL; EC50 (Rhinovirus; [12]): 25 µg/mL"
CCCc1cc(=O)oc2c(C(=O)CC)c(O)c(C(=O)CC)c(O)c12,> 2 µg/mL,1.2 µg/mL,> 100 µg/mL,> 100 µg/mL,20 µg/mL,10 µg/mL,,,> 20 µg/mL,> 3 µg/mL,EC50 (Rhinovirus; [12]): 0.39 µg/mL
CCC/C(=C/C(=O)OC)c1c(O)c2c(c3c1OC(C)(C)[C@H](O)[C@H]3O)O[C@H](C)[C@@H](C)[C@@H]2O,> 2 µg/mL,> 50 µg/mL,10 µg/mL,20 µg/mL,100 µg/mL,> 100 µg/mL,20 µg/mL,5 µg/mL,> 20 µg/mL,> 4 µg/mL,
CCCc1cc(=O)oc2c3c(c4c(c12)OC(C)(C)[C@H](O)[C@H]4O)O[C@H](C)[C@@H](C)[C@@H]3O,> 2.5 µg/mL,> 50 µg/mL,10 µg/mL,100 µg/mL,> 100 µg/mL,100 µg/mL,20 µg/mL,50 µg/mL,> 100 µg/mL,> 4 µg/mL,
CCCc1cc(=O)oc2c3c(c4c(c12)OC(C)(C)C(O)C4O)O[C@H](C)[C@@H](C)[C@@H]3O (stereo partly drawn),> 8 µg/mL,9.5 µg/mL,10 µg/mL,10 µg/mL,> 100 µg/mL,> 100 µg/mL,10 µg/mL,10 µg/mL,> 20 µg/mL,> 4 µg/mL,
CCCc1cc(=O)oc2c3c(c4c(c12)OC(C)(C)[C@H](O)[C@H]4OC(=O)c1cccc(Cl)c1)O[C@H](C)[C@@H](C)C3=O,> 3 µg/mL,29.2 µg/mL,3 µg/mL,0.4 µg/mL,3 µg/mL,4 µg/mL,0.1 µg/mL,0.1 µg/mL,3.5 µg/mL,2.6 µg/mL,EC50 (Rhinovirus; read-out: Antiviral Activities (EC50) Rhinovirus (virus yield)): 4 µg/mL
"CCCc1cc(=O)oc2c3c(c4c(c12)OC(C)(C)C=C4)O[C@H](C)[C@@H](C)[C@@H]3O [(+)-calanolide A, (+)-Calanolide A]",,,,,,,,,,,"protection against the cytopathic effects of HIV-1 (HIV-1; down to a concentration of 0.1 μM): 100%; pEC50 (HIV-1; human T-lymphoblastic cells (CEM-SS), read-out: EC50, HIV-1 replication in CEM-SS): 7.00; pIC50 [2]: 4.70; activity against AZT-resistant G-9106 strain of HIV [3]: active; activity against pyridinone-resistant A17 virus [4]: active"
"CCCc1cc(=O)oc2cc(OC(=O)C(C)(C)C)cc(O)c12 [Compound 7b, 5-Hydroxy-7-pivaloyloxy-4-propylcoumarin]",,,,,,,,,,,melting point: 158 to 160 °C
